US20180055816A1, “PYRANONAPHTHOQUINONE COMPOUNDS AND METHODS OF USE THEREOF” (University of Kentucky Research Foundation, priority 2016, published 2018)

How the values were obtained:
[1] = system: AKT phosphorylation; test: AKT phosphorylation in HCT116 cells (Western blot); assay type: cell-based, human; conditions: HCT116, 12 h; 2 μM FB or UCF76-A, 0.5 μM AZD8055, 1 μM MK2206
Experimental: HCT116 cells were treated with 1 μM MK2206 and 100 nM PD0325901 alone and in combination, 100 nM rapamycin, 0.5 μM AZD8055, 2 μM UCF76-A or 2 μM FB for 12 h followed by Western blot analysis for the indicated proteins.
Cells were lysed in NP-40 lysis buffer (50 mM Tris-HCl, pH 7.5, 150 mM NaCl, 1 mM EDTA, 1% NP-40, 10% glycerol, protease and phosphatase inhibitor cocktail). Western blot analysis were performed using equivalent total protein loadings as described previously. For immunoprecipitation, the cell lysates were incubated with the indicated antibody overnight followed by incubation with a 50% slurry of protein G sepharose beads for 3 h at 4° C. The beads were washed three times with the lysis buffer, and the immunoprecipitated protein complexes were resuspended in 2× Laemmli sample buffer followed by western blot analysis.

[2] = system: cap-dependent translation; test: Cap-dependent translation bicistronic luciferase reporter assay in HCT116 cells; assay type: cell-based, human; conditions: 12 h

CCCC1OC2CC(=O)OC2C2=C1C(=O)c1c(O)cccc1C2=O (centres unmarked) [FB, frenolicin B]
inhibition of AKT phosphorylation [1]: did not inhibit | inhibition of cap-dependent translation [2]: effectively inhibit
